Experimental data: patent publication US20100184786A1, “Polar Quinazolines” (Wyeth LLC, priority 2008, published 2010)
pEC50, pIC50: −log10 of the molar value.

Columns and labels:
[1] = system: ABCA1 gene; assay: Gene regulation by LXR (murine): ABCA1 gene regulation, mRNA by real-time PCR; type: cell-based; details: Mus musculus; for Emax: read-out: Agonism ABCA1
[2] = molecular target: T1, human LXRα (Homo sapiens, UniProt Q13133); assay: Ligand-binding test procedure for human LXRα (3H T0901317 tracer, flash plates); details: competition with 3H T0901317; read-out: hLXRa binding IC50
T1 construct: biotin (biotinylated); made in house; host or cells: E. coli
T1 sequence (Q13133 1-447): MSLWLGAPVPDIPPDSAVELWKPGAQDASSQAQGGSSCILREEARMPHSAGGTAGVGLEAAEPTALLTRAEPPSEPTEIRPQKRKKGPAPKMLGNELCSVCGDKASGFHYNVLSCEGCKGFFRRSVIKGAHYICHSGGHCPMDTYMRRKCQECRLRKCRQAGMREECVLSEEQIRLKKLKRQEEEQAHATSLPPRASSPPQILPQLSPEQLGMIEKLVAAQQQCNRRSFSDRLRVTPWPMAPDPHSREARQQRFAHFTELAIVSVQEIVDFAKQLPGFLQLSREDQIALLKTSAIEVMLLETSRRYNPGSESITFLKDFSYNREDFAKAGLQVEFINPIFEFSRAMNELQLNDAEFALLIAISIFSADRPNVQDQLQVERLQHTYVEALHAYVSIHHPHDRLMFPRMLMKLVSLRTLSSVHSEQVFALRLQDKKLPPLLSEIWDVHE
Method: II. Ligand-Binding Test Procedure for Human LXRa.
(§1) • Buffer: 100 mM KCl, 100 mM TRIS (pH 7.4 at +4° C.), 8.6% glycerol, 0.1 mM PMSF*, 2 mM MTG*, 0.2% CHAPS (* not used in wash buffer) • Tracer: ^3H T0901317 • Receptor source: E. coli extract from cells expressing biotinylated hLXRα. Extract was made in a similar buffer as above, but with 50 mM TRIS.
• Washed streptavidin and coated flash plates with wash buffer. • Diluted receptor extract to give Bmax˜4000 cpm and add to the wells. • Wrapped the plates in aluminum foil and stored them at +4° C. over night.
(§2) • Made a dilution series in DMSO of the test ligands. • Made a 5 nM solution of the radioactive tracer in buffer. • Mixed 2500 diluted tracer with 50 of the test ligand from each concentration of the dilution series. • Washed the receptor-coated flash plates. • Added 2000 per well of the ligand/radiolabel mixture to the receptor-coated flash plates. • Wrapped the plates in aluminum foil and incubate at +4° C. over night.
• Aspirated wells, and wash the flashed plates. Sealed the plate. • Measured the remaining radioactivity in the plate.

[3] = molecular target: T2, human LXRβ (Homo sapiens, UniProt P55055); assay: Ligand-binding test procedure for human LXRβ (3H T0901317 tracer, flash plates); details: competition with 3H T0901317; read-out: hLXRb binding IC50
T2 construct: biotin (biotinylated); made in house; host or cells: E. coli
T2 sequence (P55055 1-460): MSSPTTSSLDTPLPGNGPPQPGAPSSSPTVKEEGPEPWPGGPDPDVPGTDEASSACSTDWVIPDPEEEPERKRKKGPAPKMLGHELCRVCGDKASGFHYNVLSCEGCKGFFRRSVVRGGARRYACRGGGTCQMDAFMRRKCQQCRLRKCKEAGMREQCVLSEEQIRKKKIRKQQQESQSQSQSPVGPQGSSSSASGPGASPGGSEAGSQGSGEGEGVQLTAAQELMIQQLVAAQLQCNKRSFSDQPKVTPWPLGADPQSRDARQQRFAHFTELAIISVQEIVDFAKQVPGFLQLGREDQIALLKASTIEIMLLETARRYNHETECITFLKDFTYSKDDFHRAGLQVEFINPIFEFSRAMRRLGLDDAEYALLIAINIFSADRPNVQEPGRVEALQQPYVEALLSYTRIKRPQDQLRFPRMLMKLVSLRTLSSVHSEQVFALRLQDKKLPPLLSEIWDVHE
Method: I. Ligand-Binding Test Procedure for Human LXRβ.
as §1, with “extracted” for “extract”, “hLXRβ.” for “hLXRα.”
• Washed streptavidin and coated flash plates with wash buffer. • Diluted receptor extract to give Bmax˜4000 cpm and add to the wells. • Wrapped the plates in aluminum foil and stored them at +4° C. overnight.
as §2
• Aspirated wells, and washed the flashed plates. Sealed the plate. • Measured the remaining radioactivity in the plate.

pEC50 [1]	pIC50 [2]	pIC50 [3]	Compound	Emax [1] [%]
5.57	6.29	7.46	N#CCCCS(=O)(=O)c1cccc(Oc2ccc(Cl)c(-c3ncnc4c(C(F)(F)F)cccc34)c2)c1 [Example 3, 4-[(3-{4-chloro-3-[8-(trifluoromethyl)quinazolin-4-yl]phenoxy}phenyl)sulfonyl]-butanenitrile]	71
5.36	5.74	6.98	N#CCCCS(=O)(=O)c1cccc(Oc2ccc(Cl)c(-c3ncnc4c(Cl)cccc34)c2)c1 [Example 4, 4-({3-[4-chloro-3-(8-chloroquinazolin-4-yl)phenoxy]phenyl}sulfonyl)butanenitrile]	48
5.49	6.05	6.85	CS(=O)(=O)CCCS(=O)(=O)c1cccc(Oc2ccc(Cl)c(-c3ncnc4c(C(F)(F)F)cccc34)c2)c1 [Example 5, 4-[2-chloro-5-(3-{[3-(methylsulfonyl)propyl]sulfonyl}phenoxy)phenyl]-8-(trifluoro-methyl)quinazoline]	51
5.66	5.88	6.90	NC(=O)CCCS(=O)(=O)c1cccc(Oc2ccc(Cl)c(-c3ncnc4c(Cl)cccc34)c2)c1 [Example 8, 4-({3-[4-chloro-3-(8-chloroquinazolin-4-yl)phenoxy]phenyl}sulfonyl)butanamide]	74
5.86	6.15	7.25	NC(=O)CS(=O)(=O)c1cccc(Oc2ccc(Cl)c(-c3ncnc4c(C(F)(F)F)cccc34)c2)c1 [Example 14, 2-[(3-{4-chloro-3-[8-(trifluoromethyl)quinazoliyl]phenoxy}phenyl)sulfonyl]-acetamide]	95
5.53	5.99	7.72	O=C(O)CS(=O)(=O)c1cccc(Oc2ccc(Cl)c(-c3ncnc4c(C(F)(F)F)cccc34)c2)c1 [Example 15, [(3-{4-chloro-3-[8-(trifluoromethyl)quinazolin-4-yl]phenoxy}phenyl)sulfonyl]acetic acid]	51
6.59	6.84	7.96	CNS(=O)(=O)c1cccc(Oc2ccc(Cl)c(-c3ncnc4c(Cl)cccc34)c2)c1 [Example 16, 3-[4-chloro-3-(8-chloroquinazolin-4-yl)phenoxy]-N-methylbenzenesulfonamide]	98
5.83	5.77	6.82	NS(=O)(=O)c1cccc(Oc2ccc(Cl)c(-c3ncnc4c(Cl)cccc34)c2)c1 [Example 17, 3-[4-chloro-3-(8-chloroquinazolin-4-yl)phenoxy]benzenesulfonamide]	74
7.07	7.09	8.40	CNS(=O)(=O)c1cccc(Oc2ccc(Cl)c(-c3ncnc4c(C(F)(F)F)cccc34)c2)c1 [Example 18]	94
6.66	6.24	7.31	NS(=O)(=O)c1cccc(Oc2ccc(Cl)c(-c3ncnc4c(C(F)(F)F)cccc34)c2)c1 [Example 19, 3-{4-chloro-3-[8-(trifluoromethyl)quinazolin-4-yl]phenoxy}benzenesulfonamide]	95
6.19	6.00	6.92	NS(=O)(=O)c1cccc(Oc2ccc(F)c(-c3ncnc4c(C(F)(F)F)cccc34)c2)c1 [Example 21, 3-{4-fluoro-3-[8-(trifluoromethyl)quinazolin-4-yl]phenoxy}benzenesulfonamide]	68
6.54	6.83	8.00	CNS(=O)(=O)c1cccc(Oc2ccc(F)c(-c3ncnc4c(C(F)(F)F)cccc34)c2)c1 [Example 22]	81
6.35	7.48	7.77	CNS(=O)(=O)c1cccc(Oc2ccc(F)c(-c3ncnc4c(Cl)cccc34)c2)c1 [Example 23, 3-[3-(8-chloroquinazolin-4-yl)-4-fluorophenoxy]-N-methylbenzenesulfonamide]	85
	5.52	6.94	NCCCS(=O)(=O)c1cccc(Oc2ccc(F)c(-c3ncnc4c(C(F)(F)F)cccc34)c2)c1 [Example 28, 3-[(3-{4-fluoro-3-[8-(trifluoromethyl)quinazolin-4-yl]phenoxy}phenyl)sulfonyl]propan-1-amine]	3
5.75	6.20	7.28	N#CCCCCS(=O)(=O)c1cccc(Oc2ccc(F)c(-c3ncnc4c(C(F)(F)F)cccc34)c2)c1 [Example 31, 5-[(3-{4-fluoro-3-[8-(trifluoromethyl)quinazolin-4-yl]phenoxy}phenyl)sulfonyl]pentanenitrile]	99
	5.40	6.56	N#CCCCS(=O)(=O)c1cccc(Oc2ccc(F)c(-c3ncnc4c(Cl)cccc34)c2)c1 [Example 47, 4-({3-[3-(8-chloroquinazolin-4-yl)-4-fluorophenoxy]phenyl}sulfonyl)butanenitrile]	
	5.20	6.33	CS(=O)(=O)NCCCS(=O)(=O)c1cccc(Oc2ccc(F)c(-c3ncnc4c(Cl)cccc34)c2)c1 [Example 50, N-[3-({3-[3-(8-chloroquinazolin-4-yl)-4-fluorophenoxy]phenyl}sulfonyl)propyl]methane-sulfonamide]	
	5.31	6.35	CS(=O)(=O)NCCCCS(=O)(=O)c1cccc(Oc2ccc(F)c(-c3ncnc4c(Cl)cccc34)c2)c1 [Example 51, N-[4-({3-[3-(8-chloroquinazolin-4-yl)-4-fluorophenoxy]phenyl}sulfonyl)butyl]methane-sulfonamide]	
	3.63	6.49	NC(=O)CCCCS(=O)(=O)c1cccc(Oc2ccc(F)c(-c3ncnc4c(Cl)cccc34)c2)c1 [Example 53, 5-({3-[3-(8-chloroquinazolin-4-yl)-4-fluorophenoxy]phenyl}sulfonyl)pentanamide]	
	5.18	6.23	NC(=O)CCCS(=O)(=O)c1cccc(Oc2ccc(F)c(-c3ncnc4c(Cl)cccc34)c2)c1 [Example 54, 4-({3-[3-(8-chloroquinazolin-4-yl)-4-fluorophenoxy]phenyl}sulfonyl)butanamide]	
	5.65	6.82	Cc1nc(-c2cc(Oc3cccc(S(=O)(=O)CCCC#N)c3)ccc2Cl)c2cccc(C(F)(F)F)c2n1 [Example 59, 4-[(3-{4-chloro-3-[2-methyl-8-(trifluoromethyl)quinazolin-4-yl]phenoxy}phenyl)sulfonyl]-butanenitrile]	
	5.15	6.46	Cc1nc(-c2cc(Oc3cccc(S(=O)(=O)CCCNS(C)(=O)=O)c3)ccc2Cl)c2cccc(C(F)(F)F)c2n1 [Example 62, N-{3-[(3-{4-chloro-3-[2-methyl-8-(trifluoromethyl)quinazolin-4-yl]phenoxy}phenyl)sulfonyl]-propyl}methanesulfonamide]	
	5.34	6.49	Cc1nc(-c2cc(Oc3cccc(S(=O)(=O)CCCCNS(C)(=O)=O)c3)ccc2Cl)c2cccc(C(F)(F)F)c2n1 [Example 63, N-{4-[(3-{4-chloro-3-[2-methyl-8-(trifluoromethyl)quinazolin-4-yl]phenoxy}phenyl)sulfonyl]-butyl}methanesulfonamide]	
